From paper PMC11050599, “Novel Tetracyclic Azaphenothiazines with the Quinoline Ring as New Anticancer and Antibacterial Derivatives of Chlorpromazine” (International Journal of Molecular Sciences, 2024) come the findings set out here.

In general, IC50 refers to the point on the concentration scale where inhibition reaches its midpoint. As a reminder, the MIC is the lowest concentration found to suppress growth.

One assay concerns A549 (lung cancer). Put plainly: MTT assay, A549 cells. It counts as cell-based, human. A digest of the protocol:
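Test compounds are added to plated cells (1 × 10^4 per well) for 72 h. Cell viability is calculated as the percentage of MTT reduction compared with cells given medium alone.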
Background: Tetrazolium assays rely on reduction of a dye to a coloured formazan, in cell work by metabolically active cells.

Assay [1] deals with S. epidermidis ATCC 12228. Put plainly: MIC broth microdilution. Format: cell-based. Conditions: Staphylococcus epidermidis, ATCC12228; 19 h, 35 °C; read-out: MIC S. epidermidis ATCC 12228. The gist of the method: (§1)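 Two-fold serial broth microdilution in Mueller-Hinton II broth, final inoculum adjusted to […]. Compounds dissolved in DMSO, final solvent at most 1%.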

A further assay concerns S. aureus ATCC 25923. The experiment in a line: MIC broth microdilution. Format: cell-based. Conditions: Staphylococcus aureus, ATCC25923; 19 h, 35 °C; read-out: MIC S. aureus ATCC 25923. The gist of the method:
as §1
In general terms: In broth dilution the organism is exposed to a series of concentrations in liquid medium.

The next assay concerns S. aureus ATCC 29213. Put plainly: MIC broth microdilution. Format: cell-based. The conditions noted are these: Staphylococcus aureus, ATCC29213; 19 h, 35 °C; read-out: MIC S. aureus ATCC 29213. The gist of the method:
as §1

A further assay has as its system S. aureus NCTC 4163. The experiment in a line: MIC broth microdilution. Format: cell-based. Conditions: 19 h, 35 °C. The gist of the method: as §1
The next assay has as its system S. aureus ATCC 6538. The experiment in a line: MIC broth microdilution. Format: cell-based. Conditions: Staphylococcus aureus, ATCC6538; 19 h, 35 °C; read-out: MIC S. aureus ATCC 6538. A digest of the protocol: as §1
The test system of a further assay is E. coli ATCC 25922. Put plainly: MIC broth microdilution. It counts as cell-based. Conditions: Escherichia coli, ATCC25922; 19 h, 35 °C; read-out: MIC E. coli ATCC 25922. A digest of the protocol:
as §1

Assay [2] deals with S. epidermidis ATCC 35984. Put plainly: MIC broth microdilution. It counts as cell-based. Conditions: Staphylococcus epidermidis, ATCC35984; 19 h, 35 °C; read-out: MIC S. epidermidis ATCC 35984. The gist of the method:
as §1

Assay [3] relates to MDA-MB-231 (breast cancer). The experiment in a line: MTT assay, MDA-MB-231 cells. Format: cell-based, human. The gist of the method:
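Cells at 1 × 10^4 per well were exposed to compounds for 72 h, in MEM (HCT116), DMEM high glucose (MDA-MB-231, HaCaT) or RPMI (PC3), each with 10% FBS and 20 mM HEPES. Viability is given as MTT reduction relative to medium-only control (%).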

[4] abbreviates: SI = IC50 for normal cell line (HaCaT)/IC50 cancer cell line.

Converted amounts (≈) assume the structure as drawn.

Consider `CN1CCCCC1CCN1c2cc(Cl)ccc2Sc2cc3ccccc3nc21` (stereo not drawn) [Compound 11, 8-Chloro-6-(2-(1-methylpiperidin-2-yl)ethyl)-quino[3,2-b]benzo[1,4]thiazine], for which the IC50 in the assay on A549 (lung cancer) (Homo sapiens, A549, MTT, 72 h, mean SD, read-out: IC50 A549) was 16 ± 4.2 µM; in assay [3] (Homo sapiens, MDA-MB-231, MTT, 72 h, MDA-MB231, read-out: IC50 MDA), 16.7 ± 1.1 µM. In addition, the “SI A549” value with A549 (lung cancer) (setting [4]) is reported as 1. Further, the MIC in assay [1] was 256 µg/mL (≈ 624 µM); with S. aureus ATCC 25923 it was 128 µg/mL (≈ 312 µM); in the assay with S. aureus ATCC 29213, 128 µg/mL (≈ 312 µM); with S. aureus NCTC 4163 (Staphylococcus aureus, NCTC4163, read-out: MIC S. aureus NCTC 4163) it was 8 µg/mL (≈ 19.5 µM); in the assay with S. aureus ATCC 6538 it was 128 µg/mL (≈ 312 µM); with E. coli ATCC 25922 it was over 256 µg/mL. The MIC in [2] was found to be 256 µg/mL (≈ 624 µM). The “MIC S. aureus NCTC 4163” value in the assay with S. aureus NCTC 4163 stood at 8 µg/mL (≈ 19.5 µM). For the same compound, the “SI MDA” value in assay [3] (setting [4]) amounted to 0.9.
